In experiment [1] the test system is NS-SV-AC cells. The experiment can be described thus: Western analysis of autoantigen protein levels. The class given is cell-based, human. To be noted: 100 uM. As to the method:
(§1) Western blot. Cells were washed in ice-cold PBS and lysed for 20 min in RIPA buffer containing 1% (v/v) Nonidet P-40, 0.5% (w/v) sodium deoxycholate, 0.1% (w/v) SDS, 10 μg/ml leupeptin, 3 μg/ml aprotinin and 100 mM phenylmethylsulfonyl fluoride (PMSF). Samples of lysates containing the same amount of protein were loaded in each lane (we used 5-30μg, depending on the antibody used) and electrophoretically separated on a 12% SDS polyacrylamide gel. Following electrophoresis, proteins were transferred to a PVDF membrane (Immobilon™-P, Millipore Corporation, Bedford, Mass.). The membrane was blocked for 1 h with 5% (w/v) non-fat dry milk powder in PBST (0.1% Tween-20 in PBS) and then incubated for 1 h with primary antibody diluted in PBST/milk (Antibodies and dilutions: rabbit polyclonal JNK1/2, […], mouse monoclonal pJNK1/2, 1:1000, rabbit polyclonal ERK, 1:2000, rabbit polyclonal p38, 1:1000, rabbit polyclonal pp 38, 1:1000 and goat polyclonal actin, 1:2000). The membrane was washed three times with PBST and incubated with peroxidase-conjugated, affinity-purified anti-rabbit IgG (Santa Cruz Biotechnology, Inc.) for 1 h. Following extensive washing, the reaction was developed by enhanced chemiluminescent staining using ECL Western blotting detection reagents (Amersham Pharmacia Biotech Inc., Piscataway, N.J.).
(§2) To extend the mRNA data, the protein levels of 6 different autoantigens in NHEK and NS-SV-AC cells were determined by Western analysis following two treatments with 100 uM EGCSG at 24 and 48 hrs.

For experiment [2], the system named is NHEK. The experiment can be described thus: Western analysis of autoantigen protein levels. It counts as cell-based, human. To be noted: 100 uM. As to the method:
as §1, §2

This is an account of results in patent US8287923B2, “Compositions and methods for treating immune disorders” (priority 2005, dated 2012).

As to `O=C(O[C@@H]1Cc2c(O)cc(O)cc2O[C@@H]1c1cc(O)c(O)c(O)c1)c1cc(O)c(O)c(O)c1` [EGCG, (−)-epigallocatechin-3-gallate], in experiment [1] (24 hrs), the Golgin-67 protein level entry is “reduced”, the PARP protein level entry is “significantly reduced”, the “SS-A/Ro 52 protein level” value was “Neither SS-A/Ro 52 nor SS-B/La were significantly reduced” and the SS-B/La protein level result was “Neither SS-A/Ro 52 nor SS-B/La were significantly reduced”. In addition, in experiment [1] (24 hrs), the coilin protein level entry is given as “significantly reduced”. Also, in experiment [1] (48 hrs), the Golgin-67 protein level entry is recorded as “barely detectable”, the PARP protein level entry is recorded as “barely detectable”, the “SS-A/Ro 52 protein level” value is on record as “considerably reduced” and the SS-B/La protein level entry is recorded as “considerably reduced”. Also, the coilin protein level result in experiment [1] (48 hrs) is on record as “barely detectable”. Moreover, in experiment [2] (24 hrs), the PARP protein level result is recorded as “significantly reduced”, the “SS-A/Ro 52 protein level” value was “Neither SS-A/Ro 52 nor SS-B/La were significantly reduced”, the SS-B/La protein level result is “Neither SS-A/Ro 52 nor SS-B/La were significantly reduced” and the coilin protein level entry is reported as “significantly reduced”. Moreover, in experiment [2] (48 hrs), the Golgin-67 protein level result was “the reduction was not as marked and was only observed at 48 hrs”; the PARP protein level result is “barely detectable”; the “SS-A/Ro 52 protein level” value is given as “considerably reduced”; the SS-B/La protein level entry was “considerably reduced”. For the same molecule, in experiment [2] (48 hrs), the coilin protein level result is listed as “barely detectable”.
